“Also recorded” adds a separate entry of the source.
Experiments:
SIVmac251 = assay: Plasma viral load (real time RT-PCR of SIV RNA) in SIV-infected rhesus macaques; assay type: in vivo, rhesus macaques (Macaca mulatta)
Excerpt: Fifteen (15) colony bred rhesus macaques (Macaca mulatta) from the California Regional Primate Research Center, Davis, were used in this study. Animals were housed in accordance with The American Association for Accredition of Laboratory Animal Care guidelines. All animals were seronegative for simian retrovirus (SRV-1) and simian T cell leukemia virus type-1 (STLV-1). Rhesus macaques were intravenously (I.V.) infected with 100 animal infectious doses of uncloned pathogenic SIVmac251. This viral inoculum has been previously shown to cause persistent viremia and infection Of multiple tissues in vivo, leading to fatal AIDS-like disease (Mandell et al 1995). The animals were divided into the following groups • 1. Untreated Controls, necropsy at week 10 (n=3) • 2. Untreated Controls, necropsy at week 26 (n=3) • 3 PMPA treatment, necropsy at week 10 (n=3) • 4. PMPA+RDP58 treatment, necropsy at week 10 (n=3) • 5. PMPA treatment, necropsy at week 26 (n=3) • 6. […]
Primers and probes specific to the SIV RNA sequence were designed and used in the real time PCR reaction. […] The progress of the reaction is monitored through the fluorescence released by […] that is proportional to the product being formed. Thus the fluorescence intensity is directly related to the amount of input target RNA. The data was analyzed with Sequence Detector Software (SDS). […]

[1] = test system: T cells in gut associated lymphoid tissue (GALT) and blood; assay: Flow cytometry of T cells from jejunal biopsies (GALT) and peripheral blood of SIV-infected rhesus macaques; assay type: in vivo, rhesus macaques (Macaca mulatta)
Excerpt: Fifteen (15) colony bred rhesus macaques (Macaca mulatta) from the California Regional Primate Research Center, Davis, were used in this study. Animals were housed in accordance with The American Association for Accredition of Laboratory Animal Care guidelines. All animals were seronegative for simian retrovirus (SRV-1) and simian T cell leukemia virus type-1 (STLV-1). Rhesus macaques were intravenously (I.V.) infected with 100 animal infectious doses of uncloned pathogenic SIVmac251. This viral inoculum has been previously shown to cause persistent viremia and infection Of multiple tissues in vivo, leading to fatal AIDS-like disease (Mandell et al 1995). The animals were divided into the following groups • 1. Untreated Controls, necropsy at week 10 (n=3) • 2. Untreated Controls, necropsy at week 26 (n=3) • 3 PMPA treatment, necropsy at week 10 (n=3) • 4. PMPA+RDP58 treatment, necropsy at week 10 (n=3) • 5. PMPA treatment, necropsy at week 26 (n=3) • 6. PMPA+RDP58 treatment, necropsy at week 26 (n=3)
PMPA treatment was initiated at 6 weeks post-infection and was administered at 30 mg/kg, I.V. RDP58 was administered orally, dissolved in drinking water, at 2 mg/kg, 3×/week.
Jejunal biopsies and peripheral blood samples were obtained from all animals prior to infection and at 2 weeks, 6 weeks, 10 weeks, 16 weeks and 26 weeks post-infection and at necropsy. Jejunal biopsies was obtained using a pediatric gastroscope.
Jejunal pinch biopsy samples were incubated RPMI 1640 (Gibco) and collagenase (Sigma) at 37° C. and rapidly shaken for 45 minutes then subjected to Percoll (Sigma) density gradient centrifugation to enrich for T cells and eliminate tissue debris. Cells were then washed with PBS (Gibco) and allowed to equilibrate over night at 37° C. and 5% CO2 in complete RPMI 1640 (containing 10% fetal calf sera, penicillin and streptomyicin). Cells were stained for three-color flow cytometric analysis with CD3FITC, CD4PE, CD8PE, CD45RA (BD Pharmingen), CD8TC, CD69TC, CD28TC, CD25PE (Caltag). All cells were fixed in 1% paraformaldehyde in PBS and read on a Bectin Dickenson FacScan within 3 hours of staining. Flow data was analyzed using Bectin Dickenson CellQuest softwear.

Compound	plasma viral load (viral RNA copies/ml plasma) (SIVmac251; therapy started at week 6 post infection, PMPA 30 mg/kg I.V.)	CD3 gated CD4+ T cells after SIV-induced depletion ([1]; GALT and blood, treatment from week 6)	% CD3 gated CD8+ cells ([1]; by week 10)	CD4+CD8+ double positive T cell counts in GALT ([1]; week 12, GALT)	effect of RDP58 on suppression of viral loads by antiretroviral therapy (SIVmac251; RDP58 2 mg/kg orally 3x/week, alone or added to PMPA, 2 mg/kg)	stabilizing CD4+ T-cell population in GALT ([1]; GALT)
C[C@H](Cn1cnc2c(N)ncnc21)OCP(=O)(O)O [PMPA, 9-R-(2-phosphonomethoxypropyl)adenine]	gradual decrease in viral load	reversal	gradual decrease	modest changes	–	–
Arg-nL-nL-nL-Arg-nL-nL-nL-Gly-Tyr [RDP58]	–	–	–	–	no adverse effect; also recorded: did not interfere with or change the effect of antiretroviral therapy	beneficial effects
